For 23 compounds, EC50 results are on record in patent publication US20250312352A1, “GLP-1R MODULATING COMPOUNDS” (Gilead Sciences, Inc., priority 2021, published 2025).

In the test the target is T1, GLP-1R (Homo sapiens, UniProt P43220).
T1 construct: host or cells: CHO cells
T1 sequence (P43220 24-463): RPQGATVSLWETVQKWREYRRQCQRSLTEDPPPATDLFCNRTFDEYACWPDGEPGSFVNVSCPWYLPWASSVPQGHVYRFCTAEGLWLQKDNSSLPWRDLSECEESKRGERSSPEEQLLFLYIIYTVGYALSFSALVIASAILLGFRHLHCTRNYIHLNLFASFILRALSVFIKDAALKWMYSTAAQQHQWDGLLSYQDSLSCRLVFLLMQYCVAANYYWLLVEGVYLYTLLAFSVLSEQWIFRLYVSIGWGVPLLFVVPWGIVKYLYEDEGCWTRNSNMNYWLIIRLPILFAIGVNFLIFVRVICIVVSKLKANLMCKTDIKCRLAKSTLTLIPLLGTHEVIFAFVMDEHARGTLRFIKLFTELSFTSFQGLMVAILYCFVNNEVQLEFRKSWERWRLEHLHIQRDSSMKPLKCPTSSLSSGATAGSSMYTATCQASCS
The test is described as follows: GLP-1R activation cAMP assay (Assay 1 or Assay 2). In kind it is cell-based. The conditions noted are these: cAMP increase in CHO cells stably expressing GLP-1R; compounds run on one of the two cAMP assays. In short, it runs like this: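 CHO cells stably expressing human GLP-1R were incubated 1 h in HBSS/20 mM HEPES/0.1% BSA, then exposed to 10-point agonist dilutions for 30 min at 37 °C. cAMP increase was measured with an HTRF Gs dynamic kit; EC50 from sigmoidal fit of response versus log concentration.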
As to `COCCn1c(Cc2cc(F)c(-c3cccc(OCc4ccc(-c5cnn(C6CC6)c5)cc4F)n3)cc2F)nc2ccc(C(=O)O)cc21` [Example 225, 2-(4-(6-((4-(1-cyclopropyl-1H-pyrazol-4-yl)-2-fluorobenzyl)oxy)pyridin-2-yl)-2,5-difluorobenzyl)-1-(2-methoxyethyl)-1H-benzo[d]imidazole-6-carboxylic acid], a half-maximal effect (EC50) was put at 0.7 nM. The result for `N#Cc1ncc(COc2cccc(-c3cc(F)c(Cc4nc5ccc(C(=O)O)cc5n4C[C@@H]4CCO4)cc3F)n2)s1` [Example 166, (S)-2-(4-(6-((2-cyanothiazol-5-yl)methoxy)pyridin-2-yl)-2,5-difluorobenzyl)-1-(oxetan-2-ylmethyl)-1H-benzo[d]imidazole-6-carboxylic acid] reads 0.62 nM; that for `O=C(O)c1ccc2nc(Cc3cc(F)c(-c4cccc(OCc5cn6cccnc6n5)n4)cc3F)n(C[C@@H]3CCO3)c2c1` [Example 29, (S)-2-(2,5-difluoro-4-(6-(imidazo[1,2-a]pyrimidin-2-ylmethoxy)pyridin-2-yl)benzyl)-1-(oxetan-2-ylmethyl)-1H-benzo[d]imidazole-6-carboxylic acid], 13.7 nM. The result for `O=C(O)c1ccc2nc(Cc3cc(F)c(-c4cccc(OCc5ccc(C#Cc6ccncc6)cc5F)n4)cc3F)n(C[C@@H]3CCO3)c2c1` [Example 140, (S)-2-(2,5-difluoro-4-(6-((2-fluoro-4-(pyridin-4-ylethynyl)benzyl)oxy)pyridin-2-yl)benzyl)-1-(oxetan-2-ylmethyl)-1H-benzo[d]imidazole-6-carboxylic acid] reads 0.4 nM.

`Cc1cc(Cc2nc3ccc(C(=O)O)cc3n2[C@@H]2COCC2(C)C)c(F)cc1-c1cccc(OCc2ncc(Cl)s2)n1` [Example 257, (S)-2-(4-(6-((5-chlorothiazol-2-yl)methoxy)pyridin-2-yl)-2-fluoro-5-methylbenzyl)-1-(4,4-dimethyltetrahydrofuran-3-yl)-1H-benzo[d]imidazole-6-carboxylic acid] showed a half-maximal effective concentration (EC50) of 0.583 nM. Turning to `COc1nnc(COc2cccc(-c3ccc(Cc4nc5ccc(C(=O)O)cc5n4[C@@H]4COCC4(C)C)c(F)c3)n2)s1` [Example 401, (S)-1-(4,4-dimethyltetrahydrofuran-3-yl)-2-(2-fluoro-4-(6-((5-methoxy-1,3,4-thiadiazol-2-yl)methoxy)pyridin-2-yl)benzyl)-1H-benzo[d]imidazole-6-carboxylic acid], the EC50 is 0.487 nM. The compound `COc1cc(C(=O)NC2(C#N)CC2)ncc1COc1cccc(-c2cc(F)c(Cc3nc4ccc(C(=O)O)cc4n3C[C@@H]3CCO3)cc2F)n1` [Example 41, (S)-2-(4-(6-((6-((1-cyanocyclopropyl)carbamoyl)-4-methoxypyridin-3-yl)methoxy)pyridin-2-yl)-2,5-difluorobenzyl)-1-(oxetan-2-ylmethyl)-1H-benzo[d]imidazole-6-carboxylic acid] had an EC50 of 0.17 nM. `Cn1nncc1C#Cc1cnc(COc2cccc(-c3cc(F)c(Cc4nc5ccc(C(=O)O)cc5n4C[C@@H]4CCO4)cc3F)n2)c(F)c1` [Example 288, (S)-2-(2,5-difluoro-4-(6-((3-fluoro-5-((1-methyl-1H-1,2,3-triazol-5-yl)ethynyl)pyridin-2-yl)methoxy)pyridin-2-yl)benzyl)-1-(oxetan-2-ylmethyl)-1H-benzo[d]imidazole-6-carboxylic acid] had an EC50 of 0.067 nM. `CCOc1nnc(COc2cc(-c3cc(F)c(Cc4nc5ccc(C(=O)O)cc5n4[C@@H]4COCC4(C)C)cc3C)ccc2F)s1` [Example 260, (S)-1-(4,4-dimethyltetrahydrofuran-3-yl)-2-((3′-((5-ethoxy-1,3,4-thiadiazol-2-yl)methoxy)-4′,5-difluoro-2-methyl-[1,1′-biphenyl]-4-yl)methyl)-1H-benzo[d]imidazole-6-carboxylic acid] gave an EC50 of 0.254 nM. This EC50 is about 3.8-fold higher than that of the compound before.

`N#Cc1ncc(COc2cccc(-c3cc(F)c(Cc4nc5ccc(C(=O)O)cc5n4C[C@@H]4CCO4)cc3F)n2)o1` [Example 168, (S)-2-(4-(6-((2-cyanooxazol-5-yl)methoxy)pyridin-2-yl)-2,5-difluorobenzyl)-1-(oxetan-2-ylmethyl)-1H-benzo[d]imidazole-6-carboxylic acid] gave an EC50 of 21.3 nM.

Consider `Cn1cc(C#Cc2cc(F)c(COc3cccc(-c4cc(F)c(Cc5nc6ccc(C(=O)O)cc6n5C[C@@H]5CCO5)cc4F)n3)s2)cn1` [Example 117, (S)-2-(2,5-difluoro-4-(6-((3-fluoro-5-((1-methyl-1H-pyrazol-4-yl)ethynyl)thiophen-2-yl)methoxy)pyridin-2-yl)benzyl)-1-(oxetan-2-ylmethyl)-1H-benzo[d]imidazole-6-carboxylic acid], for which the EC50 is 0.28 nM. This EC50 lies about 76-fold lower than the previous one.

With `N#CC1(NC(=O)c2cc(Cl)c(COc3cccc(-c4cc(F)c(Cc5nc6c(F)cc(C(=O)O)cc6n5C[C@@H]5CCO5)cc4F)n3)cn2)COC1` [Example 188, (S)-2-(4-(6-((4-chloro-6-((3-cyanooxetan-3-yl)carbamoyl)pyridin-3-yl)methoxy)pyridin-2-yl)-2,5-difluorobenzyl)-4-fluoro-1-(oxetan-2-ylmethyl)-1H-benzo[d]imidazole-6-carboxylic acid], the half-maximal effective concentration (EC50) amounted to 0.05 nM. The result for `O=C(O)c1ccc2nc(Cc3cc(F)c(-c4cccc(OCc5nncs5)n4)cc3F)n(C[C@@H]3CCO3)c2c1` [Example 59, (S)-2-(4-(6-((1,3,4-thiadiazol-2-yl)methoxy)pyridin-2-yl)-2,5-difluorobenzyl)-1-(oxetan-2-ylmethyl)-1H-benzo[d]imidazole-6-carboxylic acid] reads 2.38 nM. The result for `O=C(O)c1cc(F)c2nc(Cc3cc(F)c(-c4ccc(F)c(OCc5ncc(C(F)F)s5)n4)cc3F)n(C[C@@H]3CCO3)c2c1` [Example 407, (S)-2-(4-(6-((5-(difluoromethyl)thiazol-2-yl)methoxy)-5-fluoropyridin-2-yl)-2,5-difluorobenzyl)-4-fluoro-1-(oxetan-2-ylmethyl)-1H-benzo[d]imidazole-6-carboxylic acid] reads 0.239 nM; that for `Cn1cncc1C#Cc1cnc(COc2cccc(-c3cc(F)c(Cc4nc5ccc(C(=O)O)cc5n4C[C@@H]4CCO4)cc3F)n2)cn1` [Example 156, (S)-2-(2,5-difluoro-4-(6-((5-((1-methyl-1H-imidazol-5-yl)ethynyl)pyrazin-2-yl)methoxy)pyridin-2-yl)benzyl)-1-(oxetan-2-ylmethyl)-1H-benzo[d]imidazole-6-carboxylic acid], 1.19 nM; that for `O=C(O)c1ccc2nc(Cc3cc(F)c(-c4cccc(OCc5nnc(-c6cnn(C(F)F)c6)s5)n4)cc3F)n(C[C@@H]3CCO3)c2c1` [Example 92, (S)-2-(4-(6-((5-(1-(difluoromethyl)-1H-pyrazol-4-yl)-1,3,4-thiadiazol-2-yl)methoxy)pyridin-2-yl)-2,5-difluorobenzyl)-1-(oxetan-2-ylmethyl)-1H-benzo[d]imidazole-6-carboxylic acid], 0.07 nM.

Compound `CC1(C)COC[C@H]1n1c(Cc2cc(F)c(-c3ccc(F)c(OCc4ncc(C(F)(F)F)s4)n3)cc2F)nc2ccc(C(=O)O)cc21` [Example 415, (S)-2-(2,5-difluoro-4-(5-fluoro-6-((5-(trifluoromethyl)thiazol-2-yl)methoxy)pyridin-2-yl)benzyl)-1-(4,4-dimethyltetrahydrofuran-3-yl)-1H-benzo[d]imidazole-6-carboxylic acid] gave a concentration for a half-maximal effect (EC50) of 0.189 nM. In the case of `O=C(O)c1ccc2nc(Cc3cc(F)c(-c4cccc(OCc5ccc(C(F)(F)F)o5)n4)cc3F)n(C[C@@H]3CCO3)c2c1` [Example 61, (S)-2-(2,5-difluoro-4-(6-((5-(trifluoromethyl)furan-2-yl)methoxy)pyridin-2-yl)benzyl)-1-(oxetan-2-ylmethyl)-1H-benzo[d]imidazole-6-carboxylic acid], the concentration for a half-maximal effect (EC50) was found to be 0.96 nM. The result for `COc1nnc(COc2cccc(-c3cc(F)c(Cc4nc5ccc(C(=O)O)cc5n4[C@@H]4COCC4(C)C)cc3C)n2)s1` [Example 261, (S)-1-(4,4-dimethyltetrahydrofuran-3-yl)-2-(2-fluoro-4-(6-((5-methoxy-1,3,4-thiadiazol-2-yl)methoxy)pyridin-2-yl)-5-methylbenzyl)-1H-benzo[d]imidazole-6-carboxylic acid] reads 0.044 nM; that for `COCCn1c(Cc2cc(F)c(-c3cccc(OCc4ccc(C#CC5CN(C)C5)cc4F)n3)cc2F)nc2ccc(C(=O)O)cc21` [Example 234, 2-[[2,5-difluoro-4-[6-[[2-fluoro-4-[2-(1-methylazetidin-3-yl)ethynyl]phenyl]methoxy]-2-pyridyl]phenyl]methyl]-3-(2-methoxyethyl)benzimidazole-5-carboxylic acid], 5.9 nM; that for `O=C(O)c1ccc2nc(Cc3cc(F)c(-c4cccc(OCc5cc(C(F)(F)F)no5)n4)cc3F)n(C[C@@H]3CCO3)c2c1` [Example 60, (S)-2-(2,5-difluoro-4-(6-((3-(trifluoromethyl)isoxazol-5-yl)methoxy)pyridin-2-yl)benzyl)-1-(oxetan-2-ylmethyl)-1H-benzo[d]imidazole-6-carboxylic acid], 1.44 nM. `Cc1cc(Cc2nc3c(F)cc(C(=O)O)cc3n2C[C@@H]2CCO2)c(F)cc1-c1cccc(OCc2ccc(C#Cc3cnn(C)c3)cc2F)n1` [Example 153, (S)-4-fluoro-2-(2-fluoro-4-(6-((2-fluoro-4-((1-methyl-1H-pyrazol-4-yl)ethynyl)benzyl)oxy)pyridin-2-yl)-5-methylbenzyl)-1-(oxetan-2-ylmethyl)-1H-benzo[d]imidazole-6-carboxylic acid] registered an EC50 of 0.36 nM. The result for `Cn1cncc1-c1cnc(COc2cccc(-c3cc(F)c(Cc4nc5ccc(C(=O)O)cc5n4C[C@@H]4CCO4)cc3F)n2)s1` [Example 102, (S)-2-(2,5-difluoro-4-(6-((5-(1-methyl-1H-imidazol-5-yl)thiazol-2-yl)methoxy)pyridin-2-yl)benzyl)-1-(oxetan-2-ylmethyl)-1H-benzo[d]imidazole-6-carboxylic acid] reads 13.6 nM.
